According to patent US20110028539A1, “Biologically active taxane analogs and methods of treatment” (Tapestry Pharmaceuticals, Inc., priority 2007, published 2011):

How the values were obtained:
[1] = test system: bovine microtubule protein (tubulin plus MAP); test: In vitro ED50 MT polymerization study (DAPI fluorescence tubulin assay); type: biochemical; settings: for ED50 Compound/ED50 Paclitaxel: ratio of tubulin polymerization ED50 to that of paclitaxel; for EC50: tubulin polymerization, 37° C., 30 minutes, maximum assembly = 25 μM paclitaxel
Experimental: In this tubulin binding assay, microtubule protein (MTP) is used as a substrate. The assay contains bovine tubulin plus microtubule associated proteins (MAP). MTP is polymerized into microtubules in the presence of DAPI (4′,6′-diamidino-2-phenylindole), a fluorescent compound. DAPI binds to tubulin; when microtubules are formed and there is an enhancement of fluorescence. The microtubule formation is measured as a function of time, using a fluorescence plate reader. […] The method used is based on the procedure published by Donna M. Barron, et al, “Fluorescence-based high-throughput assay for antimicrotuble drugs” Analytical Biochemistry, 315: 49-56, 2003, which is incorporated by reference in its entirety. The excitation wavelength, in that assay, was set at 370 nm and the emission wavelength was set at 450 nm for the DAN experiments.
A Bio-Tek FL 600 microplate Fluorescence used to measure the relative level of fluorescence in the DAPI assay.
Assays were conducted in 96-well plates. Each well contained a total volume of 0.1 mL consisting of PEM buffer (0.1 M Pipes, 1 mM EGTA, 1 mM MgCl2, pH 6.9), 0.2 mg bovine microtubule protein, and 10 μg of DAPI. […] The final DMSO concentration was 4%. The plates were incubated at 37° C. for 30 minutes and read in a fluorescence plate reader using an excitation wavelength of 360 nm and an emission wavelength of 460 nm. Fluorescence values were corrected for the sample without compound.
Experiments were done twice in triplicate. Results were subsequently combined and fit to a non-linear regression program.

[2] = Biological evaluation of separated isomers of Formula 48 (activity comparison); settings: separated diastereoisomer vs mixture
prostate DU145 = test: MTS proliferation assay, DU145; type: cell-based; settings: Homo sapiens, DU-145, 48 to 72 hrs
Experimental: (§1) Day 1: Cells were plated in appropriate growth medium at 5×10^3 per well in 100 ul in 96 well tissue culture plates, Falcon, one for each drug to be tested. Col 1 was blank; it contained no cells, just medium. The plates were incubated overnight at 37° C., 5% CO2 to allow attachment,
(§2) Day 2: Added 120 ul growth medium in wells of 96-well “dilution plates” (one for each drug) and let sit in 37° C. incubator for about 1 hr.
(§3) Thawed DMSO drug stocks (usually at 10 mM). Each drug was diluted 6 ul into a tube with 3 ml growth medium, to 20 uM.
(§4) Aspirated medium from col 12 of a dilution plate; added 200-300 ul of 20 uM drug to wells of col 12. Made serial dilution down this 96-well plate: for a […] dilution pattern, moved 60 ul from col 12 to col 11, mixed 4-5 times (using 8 place multi-pipettor), moved 60 ul to col 10, etc. stopping at col 3.
(§5) Moved 100 ul of medium+drug from dilution plate to a cell plate, i.e. col 1 from drug plate (blank=no cells) to col 1 of cell plate, etc. up to col 12. Col 2 contained cells with no drug. Col 3 had the lowest concentration of drug (0.005 nM) and col 12 had the highest drug concentration (10 uM).
(§6) Day 4 or 5: Terminated the assay 48 to 72 hrs after drug addition. […] When the color turned dark in control wells (col 2), and was still light in col 12, the absorbance at 490 nm was read on a plate reader; the results were used to calculate IC50.

head/neck KBV (MDR+) = test: MTS proliferation assay, KBV (MDR+); type: cell-based; settings: 48 to 72 hrs
Experimental: as §1, §2, §3, §4, §5, §6

colon HT29 = test: MTS proliferation assay, HT29; type: cell-based; settings: Homo sapiens, HT-29, 48 to 72 hrs
Experimental: as §1, §2, §3, §4, §5, §6

breast MDA435s = test: MTS proliferation assay, MDA435s; type: cell-based; settings: 48 to 72 hrs
Experimental: as §1, §2, §3, §4, §5, §6

Neuroblastoma SKNAS = test: MTS proliferation assay, SKNAS; type: cell-based; settings: Homo sapiens, SK-N-AS, 48 to 72 hrs
Experimental: as §1, §2, §3, §4, §5, §6

prostate PC-3 = test: MTS proliferation assay, PC-3; type: cell-based; settings: prostate PC-3, MTS, 48 to 72 hrs
Experimental: as §1, §2, §3, §4, §5, §6

uterine MESSA/Dox (MDR+) = test: MTS proliferation assay, MESSA/Dox (MDR+); type: cell-based; settings: Homo sapiens, MES-SA, 48 to 72 hrs
Experimental: as §1, §2, §3, §4, §5, §6

uterine MESSA = test: MTS proliferation assay, MESSA; type: cell-based; settings: Homo sapiens, MES-SA, 48 to 72 hrs
Experimental: as §1, §2, §3, §4, §5, §6

head/neck KB = test: MTS proliferation assay, KB; type: cell-based; settings: 48 to 72 hrs
Experimental: as §1, §2, §3, §4, §5, §6

head/neck FADU = test: MTS proliferation assay, FADU; type: cell-based; settings: Homo sapiens, 48 to 72 hrs
Experimental: as §1, §2, §3, §4, §5, §6

[3] = test system: Breast Cancer MCF-7 NCI-AR; test: Inhibition of cell growth, breast cancer MCF-7 NCI-AR (MDR+, wild type tubulin); type: cell-based; settings: Homo sapiens
Source text: (§7) Of note is the top part of the molecule illustrated above, which may be seen to have a 9-keto structure and 10-β hydroxy or 10-β acetoxy stereochemistry. The present application provides novel taxane analogs having a stereochemistry at the C-9 and C-10 OH positions of the molecule.

[4] = test system: Ovarian Carcinoma 1A9PTX10; test: Inhibition of cell growth, ovarian carcinoma 1A9PTX10 (MDR-, mutant tubulin); type: cell-based; settings: Homo sapiens, 1A9/ptx-10
Source text: as §7

Neuroblastoma SK-N-AS = test: Inhibition of cell growth, neuroblastoma SK-N-AS; type: cell-based; settings: Homo sapiens, concentration 0.1 ug/mL
Source text: as §7

[5] = test system: Squamous Cell Carcinoma FADU; test: Inhibition of cell growth, squamous cell carcinoma FADU; type: cell-based; settings: Homo sapiens, concentration 0.05 ug/mL
Source text: as §7

SMILES: C=C[C@H]1O[C@H]2C[C@H]3OC[C@@]3(OC(C)=O)[C@H]3[C@H](OC(=O)c4ccccc4)[C@]4(O)C[C@H](OC(=O)[C@H](O)[C@H](CC(C)C)NC(=O)OC(C)(C)C)C(C)=C([C@H](OC(C)=O)[C@H](O1)[C@]23C)C4(C)C [Formula S-31]
- ED50 Compound/ED50 Paclitaxel [1]: 0.53
- EC50 [1]: 1580 ± 460 nM
- activity compared with the isomeric mixture (Formula 48) [2]: significantly more active than the isomeric mixture
- IC50 (prostate DU145): 60 nM
- IC50 (head/neck KBV (MDR+)): 553 nM
- IC50 (colon HT29): 0.006 nM
- IC50 (breast MDA435s): 10 nM
- IC50 (Neuroblastoma SKNAS): 11 nM
- IC50 (prostate PC-3): 0.03 nM
- IC50 (uterine MESSA/Dox (MDR+)): 44.8 nM
- IC50 (uterine MESSA): 2.9 nM
- IC50 (head/neck KB): 9.4 nM
- IC50 (head/neck FADU): 21 nM

SMILES: CC(=O)O[C@@]12CO[C@@H]1C[C@H](O)[C@@]1(C)C(=O)[C@H](O)C3=C(C)[C@@H](OC(=O)[C@H](O)[C@@H](NC(=O)OC(C)(C)C)c4ccccc4)C[C@@](O)([C@@H](OC(=O)c4ccccc4)[C@H]21)C3(C)C [Docetaxel]
- ED50 Compound/ED50 Paclitaxel [1]: 1.07
- EC50 [1]: 3180 ± 450 nM

SMILES: C=CC1O[C@H]2C[C@H]3OC[C@@]3(OC(C)=O)[C@H]3[C@H](OC(=O)c4ccccc4)[C@]4(O)C[C@H](OC(=O)[C@H](O)[C@@H](NC(=O)c5ccccc5)c5ccccc5)C(C)=C([C@H](OC(C)=O)[C@H](O1)[C@]23C)C4(C)C (some centres unmarked) [Formula 45]
- inhibition at 0.5 µg/mL ([3]; MCF7, concentration 0.5 ug/mL): 45%
- inhibition at 1 µg/mL ([3]; MCF7, concentration 1.0 ug/mL): 65%
- inhibition at 2 µg/mL ([3]; MCF7, concentration 2.0 ug/mL): 94%
- inhibition at 0.25 µg/mL ([4]; 1A9PTX10, concentration 0.25 ug/mL): 93%
- inhibition at 0.5 µg/mL ([4]; 1A9PTX10, concentration 0.5 ug/mL): 96%

SMILES: CC(=O)O[C@H]1C(=O)[C@@]2(C)[C@H]([C@H](OC(=O)c3ccccc3)[C@]3(O)C[C@H](OC(=O)[C@H](O)[C@@H](NC(=O)c4ccccc4)c4ccccc4)C(C)=C1C3(C)C)[C@]1(OC(C)=O)CO[C@@H]1C[C@@H]2O [Paclitaxel, reference compound]
- inhibition at 40 µg/mL ([3]; MCF7, concentration 40 ug/mL): 55%
- inhibition at 5 µg/mL ([4]; 1A9PTX10, concentration 5 ug/mL): 55%
- inhibition at 0.1 µg/mL (Neuroblastoma SK-N-AS): 54%
- inhibition at 0.05 µg/mL [5]: 47%

SMILES: C/C(=C\c1csc(C)n1)[C@@H]1C[C@@H]2O[C@]2(C)CCC[C@H](C)[C@H](O)[C@@H](C)C(=O)C(C)(C)[C@@H](O)CC(=O)O1 [Epothilone B]
- ED50 Compound/ED50 Paclitaxel [1]: 1.11
- EC50 [1]: 3310 ± 510 nM
